The source of these data is patent US20160207970A1, “POLYPEPTIDE FOR THE PROTECTION AGAINST HEART ISCHEMIA-REPERFUSION INJURY” (Pharis Biotech GmbH, priority 2011, published 2016).

Assay [1] deals with isolated, retrogradely perfused rat hearts. The assay can be described thus: Global ischemia (35 min)-reperfusion (120 min) in isolated, retrogradely perfused (Langendorff) rat hearts; peptide postconditioning. The following applies: for LVD AUC / LVD-lowering effect in the presence of exendin(9-39): N-Ac-GLP-1(7-34)amide 0.3 nM + exendin(9-39) 3 nM versus control ischemia; for Infarct size (% IS/AAR): 15 min at onset of reperfusion; for Left ventricle developed pressure (LVDEV) AUC / Rate-pressure product (RPP) AUC / Left ventricle diastolic pressure (LVD) AUC over last 60 min of reperfusion / post-ischemic diastolic contracture: postconditioning 0.3 nM versus control ischemia. The procedure: Global ischemia (35 min)-reperfusion (120 min) was applied in isolated, retrogradely perfused rat hearts. Peptides were present for 15 min at the onset of reperfusion. Cardiac function parameters (beats per minute, left ventricle developed and diastolic pressures, rate-pressure product) throughout the course of the perfusion were measured. Infarct size was determined on collected hearts by 2,3,5-tripehyltetrazolium chloride staining and planimetry.
(§1) For anesthesia, a mixture of midazolam (2.5 mg/kg), fluanisone (2.5 mg/kg) and fentanyl citrate (0.08 mg/kg) was administered subcutaneously. Heparin ([…]. per kg) was administered through the femoral vein. The animals were ventilated via a tracheotomy with a mixture of 35% O2/65% N2 and the chest cavity was opened. The excised heart was immediately placed in an ice-cold Krebs Henseleit buffer. The heart was quickly mounted onto the Langendorff perfusion system (ADInstruments, UK) and perfused with modified Krebs-Henseleit solution (NaCl 118.5 mM, KCl 4.7 mM, NaHCO3 25.0 mM, MgSO4 1.2 mM, CaCl2 1.4 mM, glucose 11.1 mM), equilibrated to pH 7.4 with a gas mixture of 5% CO2/95% 02, at 37° C. The left auricle was removed and a size 7 balloon (ADInstruments) was inserted into the left ventricle through the left atrium and adjusted to a diastolic pressure of 4-10 mmHg. Perfusion pressure was set to 70 mm Hg and maintained at this average value by a servo control system (ML175 STH Pump Controller, ADInstruments) continually adjusting the peristaltic pump revolutions according to flow resistance. The hearts were allowed to stabilize for 20 min prior to recording of left ventricle functional parameter baseline values over the next 10 min: pressure (systolic, LVS; diastolic, LVD; developed, LVDEV=LVS-LVD), beats per minute (BPM) and rate-pressure product (RPP). Power Lab 8/30 system and Chart 5 Pro Software from ADInstruments were used for these recordings.
(§2) Hearts were also excluded if ventricular fibrillation lasting more than 5 min occurred during reperfusion.
FIG. 1 outlines the time course for normoxic (A) and ischemia-reperfusion (B) experiments. The experimental groups were: control normoxia, no peptide addition; normoxia, N—Ac-GLP-1(7-34)amide 0.3 nM; control ischemia-reperfusion (IR), no peptide addition; IR, N—Ac-GLP-1(7-34)amide 0.3 nM; IR, N—Ac-GLP-1(7-34)amide 0.3 nM+exendin(9-39) 3 nM; IR, exendin(9-39) 3 nM. […] “Stab” indicates 30 min stabilization period. When present, peptides were added for 15 min, from the beginning of the last 120 min of perfusion (A) or reperfusion (B). Total perfusion time was always 185 min, consisting of 30 min stabilization, followed by 155 min of normoxic perfusion (FIG. 1A) or 35 min global ischemia-120 min reperfusion (FIG. 1B).
Following reperfusion, the hearts were processed for 2, 3, 5-triphenyltetrazolium chloride staining and planimetric infarct size determination, as described earlier. Quantitation was done by an investigator blinded to the experimental conditions. Infarct size (IS) was expressed as a percentage of total ischemic area at risk (AAR) (% IS/AAR).
All values are presented as means, with SEM given in parantheses. One-way ANOVA with Dunnett's post hoc test (GraphPad Prism® 5) was used to compare treatment results to control conditions. P<0.05 was considered significant.

Assay [2] has the same test system. The assay can be described thus: Normoxic perfusion of isolated rat hearts (no preceding ischemia). Particulars: 0.3 nM between 35 and 50 min of perfusion. Here is the method:
as §1, §2
FIG. 1 outlines the time course for normoxic (A) and ischemia-reperfusion (B) experiments. The experimental groups were: control normoxia, no peptide addition; normoxia, N—Ac-GLP-1(7-34)amide 0.3 nM; control ischemia-reperfusion (IR), no peptide addition; IR, N—Ac-GLP-1(7-34)amide 0.3 nM; IR, N—Ac-GLP-1(7-34)amide 0.3 nM+exendin(9-39) 3 nM; IR, exendin(9-39) 3 nM. […] “Stab” indicates 30 min stabilization period. […]

A further assay concerns in vitro rat heart. Particulars: cited from earlier work.
Where [3] appears, read: listed as N—Ac-GLP-1-(7-34)amide.
Setting [4] is: listed as N—Ac-GLP-1(7-34)-amide.

“Also recorded” adds a separate entry of the source. Where two headings read alike, the source gives them in different places. Where no end group is shown, it is not given here.

Take “N—Ac-GLP-1(7-34)amide (Ac-HAEGTFTSDVSSYLEGQAAKEFIAWLVK-NH2) [N-terminally acetylated, C-terminally truncated analogue of GLP-1]”: the “Trend towards LVDEV improvement in the presence of exendin(9-39)” value in assay [1] (N-Ac-GLP-1(7-34)amide 0.3 nM + exendin(9-39) 3 nM) is recorded as “abolished”. For the same substance, the “LVD AUC / LVD-lowering effect in the presence of exendin(9-39)” value in assay [1] is listed as “blocked”; in assay [1] (setting [3]) it was “not affected”. Also, the “Infarct size (% IS/AAR)” value in assay [1] (N-Ac-GLP-1(7-34)amide 0.3 nM in the presence of exendin(9-39) 3 nM, mean) came out at 21.4%. The “Infarct size-limiting action in the presence of GLP-1 receptor antagonist exendin(9-39)” value in assay [1] (co-administration of exendin(9-39) 3 nM) is listed as “abolished”. In addition, the “Infarct size (IS) as percentage of area at risk (% IS/AAR)” value in assay [1] (peptide 0.3 nM for 15 min at onset of reperfusion, mean, control ischemia-reperfusion without peptide 24.8% / 28.4%) is 11.4%. Further, the “Left ventricle developed pressure (LVDEV) AUC” value in assay [1] is reported as “did not affect”; in assay [1] (setting [4]), “no significant effect”; in assay [1] (setting [3]) it was “did not increase”. Also, the “Rate-pressure product (RPP) AUC” value in assay [1] is reported as “did not affect”; in assay [1] (setting [4]) it was “no significant effect”; in assay [1] (setting [3]), “did not increase”. Moreover, the “Left ventricle diastolic pressure (LVD) AUC over last 60 min of reperfusion / post-ischemic diastolic contracture” value is listed as “diminished diastolic hypercontracture; also recorded: significant decrease” in assay [1] (P<0.05); “diminished significantly” in assay [1] (P<0.05, listed as N—Ac-GLP-1(7-34)-amide); “significantly decreased” in assay [1] (P<0.05, listed as N—Ac-GLP-1-(7-34)amide). The “Relative decrease in infarct size” value in assay [1] (postconditioning 0.3 nM versus control ischemia-reperfusion) is given as “approximately 54%”. Also, in assay [1] (postconditioning 0.3 nM versus no peptide, P<0.05), the “Effect on infarct size (in words)” value is “diminished infarct size; also recorded: significant decrease”. Also, the “Functional heart parameters (BPM, LVDEV, LVD, RPP) under normoxic perfusion” value is “not affected” in assay [2], “nor did it affect” in assay [2] (setting [4]) and “No effect” in assay [2] (setting [3]).

On to “GLP-1 (HAEGTFTSDVSSYLEGQAAKEFIAWLVKGR; ends and bridges not checked; UniProt P01275 98-127, looked up) [natural hormone GLP-1]”, for which the “Effect on myocardial infarction” value in the assay on in vitro rat heart (GLP-1 alone) was “did not decrease”; in the assay with in vitro rat heart (GLP-1 in combination with the GLP-1 breakdown inhibitor valine pyrrolidide (VP)) it was “significant reduction”.

Consider exendin(9-39) [reference compound], for which the “LVD AUC over last 60 min of reperfusion” value in assay [1] (exendin(9-39) 3 nM alone versus control ischemia) is listed as “not affected”. Besides, the “Infarct size (% IS/AAR)” value in assay [1] (exendin(9-39) 3 nM alone, mean) was 21.7%. Further, the “Effect on infarct-limiting actions of GLP-1” value in the assay with in vitro rat heart (exendin(9-39) given with GLP-1) was “abolish”.
